Values quoted from earlier work, collected in US11491138B2, “Injectable psychoactive alkaloid composition and preparation thereof” (PSILO SCIENTIFIC LTD, priority 2020, dated 2022).

Experiments:
[1] = stated as known property
[2] = reason for composition pH of 4.5-5.5

Question: For CN(C)CCc1c[nH]c2cccc(O)c12 [psilocin], which isoelectric point [1] is on record?
Answer: Its isoelectric point is 8.47±0.25 pH.

Question: And the “pH at which instability occurs” value [2]?
Answer: The value was “over 5.5 pH”.
